The NIST ThermoML archive (doi:10.1021/je049691v)
Numbers after ± are expanded uncertainties.

Details: 101.33 kPa, Liquid, Vibrating tube method

mass density (297.15 K) | mass density (298.15 K) | SMILES
1012.94 ± 0.13 kg/m3 |  | NCCO [2-aminoethan-1-ol]
 | 786.58 ± 0.13 kg/m3 | CO [methanol]
